From ChEMBL document CHEMBL5634156, “A potent and selective cis-amide inhibitor of ryanodine receptor 2 as a candidate for cardiac arrhythmia treatment” (Eur J Med Chem, 2023)
Active and inactive are the calls of the source. No cut-off for these calls is given here.

Tests used:
Assay type in all cases: cell-based
Ryanodine receptor 2 = Ryanodine receptor 2 (Mus musculus, UniProt E9Q401); assay: Inhibition of Full length wild type mouse RyR2 expressed in Flp-In-T-REx-293 cells assessed as increase in Ca2+ release endoplasmic reticulum by flex-station 3 fluorometer analysis
Sequence of Ryanodine receptor 2 (E9Q401 whole entry): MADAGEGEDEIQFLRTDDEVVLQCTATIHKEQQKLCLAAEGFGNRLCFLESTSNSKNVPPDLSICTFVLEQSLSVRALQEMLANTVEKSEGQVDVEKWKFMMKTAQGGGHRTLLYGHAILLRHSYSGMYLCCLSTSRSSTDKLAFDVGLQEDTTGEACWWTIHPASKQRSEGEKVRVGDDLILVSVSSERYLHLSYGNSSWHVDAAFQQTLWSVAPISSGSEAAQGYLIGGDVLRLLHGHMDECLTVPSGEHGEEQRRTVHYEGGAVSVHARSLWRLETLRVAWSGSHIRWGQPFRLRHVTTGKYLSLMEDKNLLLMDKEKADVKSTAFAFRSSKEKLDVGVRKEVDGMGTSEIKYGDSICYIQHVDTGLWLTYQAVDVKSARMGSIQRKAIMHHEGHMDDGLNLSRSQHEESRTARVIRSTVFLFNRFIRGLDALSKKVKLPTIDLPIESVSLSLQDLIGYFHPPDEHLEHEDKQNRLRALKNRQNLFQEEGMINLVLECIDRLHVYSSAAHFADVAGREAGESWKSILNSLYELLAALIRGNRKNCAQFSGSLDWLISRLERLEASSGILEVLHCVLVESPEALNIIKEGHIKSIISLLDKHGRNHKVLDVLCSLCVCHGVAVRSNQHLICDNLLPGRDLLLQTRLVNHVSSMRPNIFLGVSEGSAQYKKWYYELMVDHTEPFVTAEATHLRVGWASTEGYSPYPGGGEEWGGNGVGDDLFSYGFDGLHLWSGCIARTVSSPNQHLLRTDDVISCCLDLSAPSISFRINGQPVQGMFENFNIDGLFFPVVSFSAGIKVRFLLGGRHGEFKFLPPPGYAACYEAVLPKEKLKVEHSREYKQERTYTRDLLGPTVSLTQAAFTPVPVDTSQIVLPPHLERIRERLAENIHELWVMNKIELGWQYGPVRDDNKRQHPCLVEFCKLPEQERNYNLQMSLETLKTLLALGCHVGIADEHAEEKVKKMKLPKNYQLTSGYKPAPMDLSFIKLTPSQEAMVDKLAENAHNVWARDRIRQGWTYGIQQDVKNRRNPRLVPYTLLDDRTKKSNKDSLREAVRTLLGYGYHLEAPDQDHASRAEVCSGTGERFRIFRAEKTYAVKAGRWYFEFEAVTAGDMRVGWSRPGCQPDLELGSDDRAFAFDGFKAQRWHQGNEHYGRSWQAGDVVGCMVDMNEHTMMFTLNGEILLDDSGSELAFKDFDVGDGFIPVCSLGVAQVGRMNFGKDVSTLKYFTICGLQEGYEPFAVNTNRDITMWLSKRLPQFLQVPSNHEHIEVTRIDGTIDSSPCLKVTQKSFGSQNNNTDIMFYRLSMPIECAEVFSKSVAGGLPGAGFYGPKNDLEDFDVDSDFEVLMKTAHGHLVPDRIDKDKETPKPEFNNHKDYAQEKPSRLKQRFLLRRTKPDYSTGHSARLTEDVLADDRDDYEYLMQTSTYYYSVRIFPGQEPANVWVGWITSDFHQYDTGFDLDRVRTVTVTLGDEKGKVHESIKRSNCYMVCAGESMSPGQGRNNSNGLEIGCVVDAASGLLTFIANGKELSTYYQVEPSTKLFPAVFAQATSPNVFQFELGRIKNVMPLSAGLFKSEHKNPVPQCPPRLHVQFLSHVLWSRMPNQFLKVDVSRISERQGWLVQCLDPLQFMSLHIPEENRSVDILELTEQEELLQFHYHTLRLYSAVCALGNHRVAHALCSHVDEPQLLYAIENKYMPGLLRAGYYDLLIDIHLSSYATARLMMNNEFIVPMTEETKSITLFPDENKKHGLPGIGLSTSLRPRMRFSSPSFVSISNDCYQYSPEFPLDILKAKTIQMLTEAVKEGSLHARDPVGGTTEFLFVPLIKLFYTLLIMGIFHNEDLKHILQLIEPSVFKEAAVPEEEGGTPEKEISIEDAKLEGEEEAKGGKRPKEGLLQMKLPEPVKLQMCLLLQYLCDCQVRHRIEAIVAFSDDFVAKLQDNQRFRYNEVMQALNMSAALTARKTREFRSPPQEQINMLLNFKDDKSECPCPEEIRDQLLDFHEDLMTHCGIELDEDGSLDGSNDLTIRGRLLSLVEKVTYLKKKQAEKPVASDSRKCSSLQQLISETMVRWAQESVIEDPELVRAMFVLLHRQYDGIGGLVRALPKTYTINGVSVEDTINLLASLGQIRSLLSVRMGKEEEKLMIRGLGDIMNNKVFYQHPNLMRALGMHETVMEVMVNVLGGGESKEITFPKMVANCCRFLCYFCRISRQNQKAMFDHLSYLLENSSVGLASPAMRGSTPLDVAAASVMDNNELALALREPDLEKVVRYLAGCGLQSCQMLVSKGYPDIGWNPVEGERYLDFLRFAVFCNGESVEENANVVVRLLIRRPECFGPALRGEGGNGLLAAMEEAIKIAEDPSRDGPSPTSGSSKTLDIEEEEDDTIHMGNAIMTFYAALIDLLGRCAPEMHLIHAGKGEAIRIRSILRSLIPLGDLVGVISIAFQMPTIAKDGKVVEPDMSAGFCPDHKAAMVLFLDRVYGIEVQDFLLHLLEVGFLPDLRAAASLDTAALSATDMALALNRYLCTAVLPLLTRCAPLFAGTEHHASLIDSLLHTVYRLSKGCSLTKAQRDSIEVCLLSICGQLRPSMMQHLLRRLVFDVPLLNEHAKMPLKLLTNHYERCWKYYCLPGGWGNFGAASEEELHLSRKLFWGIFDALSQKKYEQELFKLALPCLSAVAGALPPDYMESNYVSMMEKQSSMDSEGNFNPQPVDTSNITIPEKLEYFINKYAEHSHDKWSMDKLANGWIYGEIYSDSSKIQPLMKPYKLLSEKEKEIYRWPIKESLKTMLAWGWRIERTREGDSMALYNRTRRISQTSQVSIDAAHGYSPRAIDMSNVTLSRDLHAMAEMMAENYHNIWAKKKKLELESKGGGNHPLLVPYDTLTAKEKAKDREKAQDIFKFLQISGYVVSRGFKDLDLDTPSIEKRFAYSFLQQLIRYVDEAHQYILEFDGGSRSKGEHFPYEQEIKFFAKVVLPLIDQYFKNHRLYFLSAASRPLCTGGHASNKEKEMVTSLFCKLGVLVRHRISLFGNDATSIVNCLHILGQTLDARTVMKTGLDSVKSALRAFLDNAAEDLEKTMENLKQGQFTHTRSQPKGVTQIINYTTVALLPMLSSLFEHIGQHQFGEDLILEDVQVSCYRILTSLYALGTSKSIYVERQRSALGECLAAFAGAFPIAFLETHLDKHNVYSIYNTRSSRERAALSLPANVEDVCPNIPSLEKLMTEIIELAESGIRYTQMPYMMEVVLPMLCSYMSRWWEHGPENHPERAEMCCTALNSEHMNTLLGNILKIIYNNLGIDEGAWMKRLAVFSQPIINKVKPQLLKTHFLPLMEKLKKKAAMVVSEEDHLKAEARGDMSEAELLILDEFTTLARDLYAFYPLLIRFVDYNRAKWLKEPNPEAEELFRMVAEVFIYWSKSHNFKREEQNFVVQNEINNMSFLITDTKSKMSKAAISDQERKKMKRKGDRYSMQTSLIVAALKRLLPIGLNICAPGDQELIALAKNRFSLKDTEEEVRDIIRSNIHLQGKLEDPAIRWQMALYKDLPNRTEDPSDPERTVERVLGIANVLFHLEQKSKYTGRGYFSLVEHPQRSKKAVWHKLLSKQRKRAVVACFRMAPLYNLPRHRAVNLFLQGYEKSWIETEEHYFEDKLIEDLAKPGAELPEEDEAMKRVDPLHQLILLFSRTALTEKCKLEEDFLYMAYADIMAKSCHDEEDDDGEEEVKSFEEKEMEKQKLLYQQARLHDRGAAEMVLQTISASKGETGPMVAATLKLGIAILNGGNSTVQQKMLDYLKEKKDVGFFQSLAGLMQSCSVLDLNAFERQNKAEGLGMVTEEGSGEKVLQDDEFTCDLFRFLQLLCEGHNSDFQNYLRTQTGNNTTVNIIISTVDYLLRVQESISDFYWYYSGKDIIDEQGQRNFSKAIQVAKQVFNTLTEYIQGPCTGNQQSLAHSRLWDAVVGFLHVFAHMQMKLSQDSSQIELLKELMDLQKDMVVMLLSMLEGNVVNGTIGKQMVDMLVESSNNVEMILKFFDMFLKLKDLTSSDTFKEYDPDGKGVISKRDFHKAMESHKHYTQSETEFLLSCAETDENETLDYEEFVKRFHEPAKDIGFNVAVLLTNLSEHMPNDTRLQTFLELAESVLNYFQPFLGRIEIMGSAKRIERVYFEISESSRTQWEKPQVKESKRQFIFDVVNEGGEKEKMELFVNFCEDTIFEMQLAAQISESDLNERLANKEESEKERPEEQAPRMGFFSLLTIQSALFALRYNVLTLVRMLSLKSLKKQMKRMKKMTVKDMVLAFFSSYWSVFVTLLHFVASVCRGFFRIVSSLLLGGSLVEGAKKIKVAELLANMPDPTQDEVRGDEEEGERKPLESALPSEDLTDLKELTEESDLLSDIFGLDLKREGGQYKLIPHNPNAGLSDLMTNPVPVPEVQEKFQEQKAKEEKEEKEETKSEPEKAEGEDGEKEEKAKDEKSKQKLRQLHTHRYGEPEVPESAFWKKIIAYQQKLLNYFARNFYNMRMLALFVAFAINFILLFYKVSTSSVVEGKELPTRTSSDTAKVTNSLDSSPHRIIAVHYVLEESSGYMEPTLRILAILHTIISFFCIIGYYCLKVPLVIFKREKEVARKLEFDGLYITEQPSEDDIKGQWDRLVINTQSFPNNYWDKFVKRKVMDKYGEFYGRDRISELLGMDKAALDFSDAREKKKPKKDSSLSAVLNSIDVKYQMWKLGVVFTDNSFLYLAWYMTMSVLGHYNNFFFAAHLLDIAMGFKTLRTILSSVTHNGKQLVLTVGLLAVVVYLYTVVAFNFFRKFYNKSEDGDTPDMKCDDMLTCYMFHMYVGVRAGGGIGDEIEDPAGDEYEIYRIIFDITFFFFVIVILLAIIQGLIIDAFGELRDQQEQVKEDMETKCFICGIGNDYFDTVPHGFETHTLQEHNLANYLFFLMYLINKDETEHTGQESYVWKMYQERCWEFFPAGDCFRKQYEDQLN

HEK293 [1] = assay: Inhibition of RyR3 R2163C mutant (unknown origin) expressed in HEK293 cells assessed as caffeine-induced increase in Ca2+ release at 100 uM; conditions: Homo sapiens
[2] = target: Ryanodine receptor 2 (Mus musculus) (UniProt E9Q401); assay: Inhibition of Full length wild type mouse RyR2 expressed in Flp-In-T-REx-293 cells assessed as caffeine-induced increase in Ca2+ release in endoplasmic reticulum at 0.0001 to 100 uM by flex-station 3 fluorometer analysis; conditions: dose 0.0001-100 µM
Sequence of Ryanodine receptor 2 (Mus musculus) (E9Q401 whole entry): as above

[3] = target: Ryanodine receptor 2 (Mus musculus) (UniProt E9Q401); assay: Inhibition of Full length wild type mouse RyR2 expressed in Flp-In-T-REx-293 cells assessed as increase in Ca2+ release in endoplasmic reticulum at 30 uM by flex-station 3 fluorometer analysis
Cardiomyocyte [4] = assay: Inhibition of RyR2 R420W mutant in mouse Cardiomyocyte assessed as 0.5 Hz field-pulse stimulated suppression of abnormal Ca2+ waves incubated for 3 mins by ROI analysis
[5] = target: Ryanodine receptor 1 (Homo sapiens) (UniProt P21817); assay: Inhibition of RyR1 (unknown origin) expressed in HEK293 cells assessed as caffeine-induced increase in Ca2+ release at 100 uM by flex-station 3 fluorometer analysis
Cardiomyocyte [6] = assay: Inhibition of RyR2 R420W mutant in mouse Cardiomyocyte assessed as 0.5 Hz field-pulse stimulated suppression of abnormal Ca2+ waves at 30 to 100 nM incubated for 15 seconds by ROI analysis; conditions: dose 30-100 nM, time 15.0 sec
HEK293 [7] = assay: Inhibition of RyR1 R2163C mutant (unknown origin) expressed in HEK293 cells; conditions: Homo sapiens
[8] = target: Ryanodine receptor 2 (Mus musculus) (UniProt E9Q401); assay: Inhibition of Full length mouse RyR2 expressed in human Flp-In-T-REx-293 cells

SMILES | EC50 (Ryanodine receptor 2) | other results
O=C(Cn1nnc(-c2cccc(F)c2)n1)N1CCc2ccccc21 | > 30000 nM | –
COc1ccccc1-c1nnn(CC(=O)N(C)c2ccccc2)n1 | 2920 nM | –
Nc1nc2ccc(OC(F)(F)F)cc2s1 [RILUZOLE] | 9900 nM | –
COc1ccccc1N(C)C(=O)Cn1nnc(-c2ccccc2)n1 | > 30000 nM | –
COc1ccccc1-c1nnn(CC(=O)Nc2ccccc2)n1 | > 30000 nM | –
CN(C(=O)Cn1nnc(-c2cc(F)cc(F)c2)n1)c1ccc(F)cc1 | 13 nM | inhibition (HEK293 [1]): inactive; inhibition [2]: Active; inhibition [3]: inactive; inhibition (Cardiomyocyte [4]): Active; inhibition [5]: inactive; inhibition (Cardiomyocyte [6]): Active
COc1ccc(-c2nnn(CC(=O)Nc3ccccc3)n2)cc1 | > 30000 nM | –
CC(C)NCC(O)c1ccc(O)c(O)c1 (stereo not drawn) | – | inhibition (Cardiomyocyte [4]): inactive; inhibition (Cardiomyocyte [6]): inactive
CN(C(=O)Cn1nnc(-c2ccccc2)n1)c1ccccc1 | 696 nM | –
COc1cccc(-c2nnn(CC(=O)N3CCc4ccccc43)n2)c1 | > 30000 nM | –
O=C(Cn1nnc(-c2cccc(F)c2)n1)Nc1ccccc1 | > 30000 nM | –
O=C(Cn1nnc(-c2cc(F)cc(F)c2)n1)Nc1ccc(F)cc1 | > 30000 nM | –
CN(C(=O)Cn1nnc(-c2ccccc2F)n1)c1ccccc1 | 460 nM | –
CN(C(=O)Cn1nnc(-c2ccccc2)n1)c1ccccc1F | 859 nM | –
CN(C(=O)Cn1nnc(-c2cc(F)cc(F)c2)n1)c1ccccc1 | 22 nM | –
O=C(Cn1nnc(-c2cccc(F)c2)n1)Nc1ccc(F)cc1 | > 30000 nM | –
CCN(C(=O)Cn1nnc(-c2ccccc2)n1)c1ccccc1 | 4080 nM | inhibition (HEK293 [7]): inactive; inhibition [8]: Active
COC(=O)c1c(C)cc(O)cc1O [METHYL ORSELLINATE] | 1100 nM | –
COc1ccc(NC(=O)Cn2nnc(-c3ccccc3)n2)cc1 | > 30000 nM | –
O=C(Cn1nnc(-c2ccccc2)n1)Nc1ccccc1 | > 30000 nM | –
CCCN(C(=O)Cn1nnc(-c2ccccc2)n1)c1ccccc1 | 29400 nM | –

Further lines, with some results ahead:

EC50 (Ryanodine receptor 2) | SMILES | other results
> 30000 nM | COc1cccc(-c2nnn(CC(=O)Nc3ccc(F)cc3)n2)c1 | –
48 nM | COc1cccc(-c2nnn(CC(=O)N(C)c3ccc(OC)c(F)c3)n2)c1 | –
23 nM | COc1cccc(-c2nnn(CC(=O)N(C)c3ccc(F)cc3)n2)c1 | –
25000 nM | COc1cccc(N(C)C(=O)Cn2nnc(-c3ccccc3)n2)c1 | –
136 nM | COc1ccc(N(C)C(=O)Cn2nnc(-c3ccccc3)n2)cc1 | –
59 nM | COc1cc(-c2nnn(CC(=O)N(C)c3ccc(F)cc3)n2)ccc1F | –
> 30000 nM | COc1cccc(-c2nnn(CC(=O)N(C)c3ccc(OC)c(OC)c3)n2)c1 | –
34 nM | CN(C(=O)Cn1nnc(-c2cccc(F)c2)n1)c1ccc(F)cc1 | –
1140 nM | COc1ccc(-c2nnn(CC(=O)N(C)c3ccc(F)cc3)n2)cc1OC | –
220 nM | CN(C(=O)Cn1nnc(-c2ccc(F)cc2)n1)c1ccccc1 | –
1230 nM | COc1ccc(-c2nnn(CC(=O)N(C)c3ccccc3)n2)cc1 | –
96 nM | CN(C(=O)Cn1nnc(-c2cccc(F)c2)n1)c1ccccc1 | –
28 nM | COc1ccc(N(C)C(=O)Cn2nnc(-c3cccc(F)c3)n2)cc1 | –
50 nM | CN(C(=O)Cn1nnc(-c2ccccc2)n1)c1ccc(F)cc1 | –
26 nM | COc1ccc(N(C)C(=O)Cn2nnc(-c3cccc(OC)c3)n2)cc1 | –
180 nM | COc1cccc(-c2nnn(CC(=O)N(C)c3ccccc3)n2)c1 | –
234 nM | CN(C(=O)Cn1nnc(-c2ccccc2)n1)c1cccc(F)c1 | –
> 30000 nM | COc1cccc(-c2nnn(CC(=O)Nc3ccccc3)n2)c1 | –
